This is an account of results in patent US10064909B2, “Compositions and methods for chronic use of a weight-gaining compound” (priority 2015, dated 2018).

Values joined by “and” are separate entries in the source; they are usually repeats but may differ in a detail not shown here. Identical values can stand only once.

Data set [1] can be described thus: Dose titration laboratory study (10 days): food consumption and bodyweight. It is filed as in vivo. The note with it: cats. As to the method:
(§1) This study defined a capromorelin oral solution dose regime that provides increased food intake and weight gain and the accompanying desired profile of IGF-1 serum levels. Laboratory adult cats were housed individually and divided into five groups (3/sex/group; n=6/group). Cats were dosed once daily for 10 consecutive days with either placebo, 1 mg/kg AT-002, 2 mg/kg AT-002, 3 mg/kg AT-002 or 4 mg/kg AT-002. The test article was a flavored solution formulation very similar to the final formulation. Study activities are summarized at Table 5.
The percent change in food consumption from baseline (average of Day −3, Day −2, and Day −1) compared to the treatment period (average of Day 1 through Day 10) was calculated for each cat, and is summarized at Table 6. The mean percent change from baseline to the treatment period for the placebo group increased 13.0%.
The percent change in bodyweight from Day −1 compared to Day 10 was calculated for each cat, and is summarized at table 7. The mean percent change for the placebo group was −0.35%, indicating a decrease in weight. […] The 4 mg/kg AT-002 group approached statistical significance (p=0.0502)

The next data set concerns GH. As to the kind of experiment: One-year dog safety study: GH plasma levels. It counts as in vivo, Beagle dogs. The note with it: dogs, Days 1, 170 and 351 following treatment. On the procedure:
(§2) This study evaluated the safety of capromorelin in dogs. Thirty-two Beagle dogs were randomly assigned to four groups (n=4/sex/group) and received 0 mg/kg, 0.39 mg/kg, 9.2 mg/kg, or 52.4 mg/kg capromorelin (with the dose calculated per the tartrate salt) once daily by oral gavage for 12 consecutive months. Safety parameters were evaluated including clinical signs, food consumption, bodyweight, clinical pathology, urinalysis, ophthalmology, electrocardiogram and vital signs. Capromorelin, GH and IGF-1 were measured in plasma samples collected at various time points during the study. At the end of the dosing period, dogs were humanely euthanized and necropsied. Selected organs were weighed and tissue samples collected and processed for microscopic examination.

The subject of data set [2] is IGF-1. Description: One-year dog safety study: IGF-1 plasma levels. To be noted: dogs, following treatment, sustained over time to Day 351. It is filed as in vivo, Beagle dogs. As to the method:
as §2

Data set [3] is described as follows: Cat dose titration laboratory study (21 days): food consumption and bodyweight. It counts as in vivo. The note with it: cats; for Mean % Change (±SD) in Food Consumption Over 21 Days: Day 1-21 vs Days -3 to -1, listed as AT-002, L-tartrate; for Mean % Change (±SD) in Bodyweight Over 21 Days: Day 1 to Day 22. As to the method: This study tested the effectiveness of an oral formulation of AT-002 in laboratory cats and to select a dose that would cause increased food intake and weight gain. This study investigated the effects of a capromorelin oral solution in cats dosed at 1 mg/kg, 2 mg/kg or 3 mg/kg compared to placebo (n=8/group) for 21 days. Food consumption was measured each day from Day −10 through Day 21. For each cat, baseline food consumption was calculated as the average of Days −3, −2 and −1. The percent change from baseline to treatment period was calculated as 100× (treatment period minus baseline)/baseline. Bodyweight was measured on Day 1, Day 8, Day 15 and Day 22. Baseline bodyweight was defined as the value collected on Day 1 (prior to treatment).

The nature of data set [4]: Dose titration laboratory study (10 days): capromorelin serum levels. It counts as in vivo. To be noted: cats. As to the method:
as §1

Data set [5] has as its system IGF-1. As to the kind of experiment: Example 9 field study: IGF-1 serum levels. It is filed as in vivo. To be noted: cats with CKD, 2 mg/kg once daily. On the procedure: A 1-mL blood sample was collected into a vacutainer tube containing no anticoagulant at the screening/qualification/Day 0, Day 30±2, Day 60±3 and Day 90±3 or at the last study visit (i.e. early removal). Blood samples were kept at room temperature and allowed to clot for about 1 hour. Clotted samples were centrifuged for approximately 15 minutes at 3000 RPM.

The subject of data set [6] is IGF-1. Description: 91-day cat safety study: serum IGF-1. It counts as in vivo. The note with it: cats, 6 mg/kg, compared to placebo controls; sustained, peak at Day 30. On the procedure:
This controlled study included two treatment groups with 4 adult cats receiving placebo (Group 1) and 8 adult cats receiving capromorelin (Formulation #9, as described above) (Group 2) for 91 consecutive days. All cats were offered food daily for a 6-hour period following an 11-day acclimation phase. All cats were weighed on Days −11, −1, 1, 14, 30, 59, 75, and 91. On Days 1 through 91, animals were orally administered capromorelin once daily via syringe at dose levels of 0 or 6 mg/kg. At one hour post-dose, all cats were offered food for a 6-hour period. Variables of interest included weight gain/loss, food consumption, clinical pathology, and serum analysis of IGF-1 and GH.
On Days 1, 30, 59, and 91, blood samples were collected prior to daily dose administration and at 8 hours post-dose and processed to serum for analysis of IGF-1 and GH levels. […] Serum chemistry parameters measured included albumin (ALB), creatine kinase (CK), albumin/globulin ratio (A\G), globulin (GLOB), alkaline phosphatase (ALP), glucose (GLU), fructosamine, alanine aminotransferase (ALT), blood urea nitrogen (BUN), phosphorus (PHOS), calcium (Ca), potassium (K), chloride (Cl), sodium (Na), cholesterol (CHOL), total protein (TP), creatinine (CRE), total bilirubin (TBIL), BUN/creatinine ratio, and sodium/potassium ratio.

As for `CN1N=C2CCN(C(=O)[C@@H](COCc3ccccc3)NC(=O)C(C)(C)N)C[C@@]2(Cc2ccccc2)C1=O.O=C(O)C(O)C(O)C(=O)O` [capromorelin, N-[(2R)-1-[(3aR)-2-methyl-3-oxo-3a-(phenylmethyl)-6,7-dihydro-4H-pyrazolo[4,3-c]pyridin-5-yl]-1-oxo-3-(phenylmethoxy)propan-2-yl]-2-amino-2-methylpropanamide L-tartrate], the “Food Consumption, Percent Change From Baseline” value came out at 30.54% in data set [1] (1 mg/kg SID, Day 1-10 vs Days -3 to -1); 45.53% in data set [1] (2 mg/kg SID, Day 1-10 vs Days -3 to -1); 54.04% in data set [1] (3 mg/kg SID, Day 1-10 vs Days -3 to -1); 78.82% in data set [1] (4 mg/kg SID, minus 5F1, Day 1-10 vs Days -3 to -1). Further, the “Bodyweight, Percent Change From Baseline” value is given as 3.07% in data set [1] (1 mg/kg SID, Day -1 to Day 10); 3.66% in data set [1] (2 mg/kg SID, Day -1 to Day 10); 5.72% in data set [1] (3 mg/kg SID, Day -1 to Day 10); 3.57% in data set [1] (4 mg/kg SID, minus 5F1, Day -1 to Day 10). For the same compound, the GH plasma levels result in the data set with GH is recorded as “increased modestly”. Moreover, the IGF-1 plasma levels entry in the data set with IGF-1 [2] is “increased”. The “Mean % Change (±SD) in Food Consumption Over 21 Days” value was 25.3% and 25.32 ± 16.70% in data set [3] (1 mg/kg, 1 mg/kg); 45.7% and 45.67 ± 24.39% in data set [3] (2 mg/kg, 2 mg/kg); 29.6% and 29.59 ± 13.65% in data set [3] (3 mg/kg, 3 mg/kg). In addition, the “Mean % Change (±SD) in Bodyweight Over 21 Days” value is listed as 5.41 ± 4.11% in data set [3] (1 mg/kg), 6.61 ± 5.05% in data set [3] (2 mg/kg) and 3.92 ± 5.15% in data set [3] (3 mg/kg). Further, the “capromorelin accumulation in serum” value in data set [4] (10 days once daily) is recorded as “no evidence of capromorelin accumulation”. Also, the “capromorelin serum concentrations by 8 hours post-dose” value in data set [4] (all AT-002 treated groups) was “very low levels”. For the same compound, the absorption result in data set [4] (oral flavored solution) was “well absorbed”. Moreover, in data set [4] (oral solution 1-4 mg/kg, post-dose), the “time of maximum serum concentrations” value is reported as no more than 30 min. Further, in the data set with IGF-1 [5], the “IGF-1 serum levels following administration” value is reported as “increase”. Moreover, in the data set on IGF-1 [6], the IGF-1 following treatment result is on record as “increased”.
